Measurements published in US9995734B2, “Human T cell line assay for evaluating the immunologic identity of glatiramer acetate preparations” (Mylan Inc., priority 2013, dated 2018).
Where “and” joins values, the source holds several entries; their conditions need not be identical. Equal values may be shown once.

Key:
Type in all cases: cell-based, human
[1] = tested on: Donor 3 GMA T-Cell Lines; assay: ATP proliferation assay (CellTiter Glo), Donor 3 GMA T-cell lines, incl. reactivity to non-canonical GA peptides; conditions: for Non-Canonical Peptide Non-Reactivity: proliferation <2 times no antigen control; for Non-Canonical Peptide Reactivity: at least one proliferation value >=2 times no antigen control
[2] = tested on: Donor 4 COP T-Cell Lines; assay: ATP proliferation assay (CellTiter Glo), Donor 4 COP T-cell lines, incl. reactivity to non-canonical GA peptides; conditions: for Non-Canonical Peptide Non-Reactivity: proliferation <2 times no antigen control; for Proliferation (luminescent ATP assay), Mean: T-cell line 205-1F4, autologous B-LCL
[3] = tested on: Donor 3 COP T-Cell Lines; assay: ATP proliferation assay (CellTiter Glo), Donor 3 COP T-cell lines, incl. reactivity to non-canonical GA peptides; conditions: for Non-Canonical Peptide Reactivity: at least one proliferation value >=2 times no antigen control

poly (Lys-Tyr; 1:1) [LT 11]
proliferation response to non-canonical GA peptides ([1]; 165-05G (so in the source), minimum 55 days in culture, 0, 1, 3, 10 μg/mL): responded | Non-Canonical Peptide Non-Reactivity ([1]; 165-B5G): LT 11 | Non-Canonical Peptide Reactivity ([1]; 165-C5G): LT 11 | Non-Canonical Peptide Non-Reactivity ([1]; 165-E7G): LT 11 | Non-Canonical Peptide Non-Reactivity ([1]; 165-E9G): LT 11 | Non-Canonical Peptide Non-Reactivity ([1]; 165-F5G): LT 11 | Non-Canonical Peptide Reactivity ([1]; 165-F10G): LT 11 | Non-Canonical Peptide Non-Reactivity ([1]; 165-H11G): LT 11 | Reactive T-Cell Line ([1]; Donor 3 GMA lines, at least a 50% increase in proliferation relative to a control after stimulation with the non-canonical GA peptide): 165-C5G (Donor 3) and 165-F10G (Donor 3) | Nonreactive T-Cell Line ([1]; Donor 3 GMA lines, stimulation with the non-canonical GA peptide): 165-B5G (Donor 3) and 165-F5G (Donor 3) and 165-E7G (Donor 3) and 165-E9G (Donor 3) and 165-H11G (Donor 3) | Proliferation (luminescent ATP assay), Mean ([1]; T-cell line 165-B5G, 1.25 μg/mL antigen, Day 55 of culturing, No Antigen Value 846): 1497 RLU | Proliferation (luminescent ATP assay), Mean ([1]; T-cell line 165-B5G, 2.5 μg/mL antigen, Day 55 of culturing, No Antigen Value 846): 1724 RLU | Proliferation (luminescent ATP assay), Mean ([1]; T-cell line 165-B5G, 5 μg/mL antigen, Day 55 of culturing, No Antigen Value 846): 1666 RLU | Proliferation (luminescent ATP assay), Mean ([1]; T-cell line 165-B5G, 10 μg/mL antigen, Day 55 of culturing, No Antigen Value 846): 2705 RLU | Proliferation (luminescent ATP assay), Mean ([1]; T-cell line 165-C5G, 1.25 μg/mL antigen, autologous B-LCL): 527 RLU | Proliferation (luminescent ATP assay), Mean ([1]; T-cell line 165-C5G, 2.5 μg/mL antigen, autologous B-LCL): 680 RLU | Proliferation (luminescent ATP assay), Mean ([1]; T-cell line 165-C5G, 5 μg/mL antigen, autologous B-LCL): 3010 RLU | Proliferation (luminescent ATP assay), Mean ([1]; T-cell line 165-C5G, 10 μg/mL antigen, autologous B-LCL): 34438 RLU | Proliferation (luminescent ATP assay), Mean ([1]; T-cell line 165-E7G, 1.25 μg/mL antigen, autologous B-LCL, Day 55): 2785 RLU | Proliferation (luminescent ATP assay), Mean ([1]; T-cell line 165-E7G, 2.5 μg/mL antigen, autologous B-LCL, Day 55): 5270 RLU | Proliferation (luminescent ATP assay), Mean ([1]; T-cell line 165-E7G, 5 μg/mL antigen, autologous B-LCL, Day 55): 3559 RLU | Proliferation (luminescent ATP assay), Mean ([1]; T-cell line 165-E7G, 10 μg/mL antigen, autologous B-LCL, Day 55): 1983 RLU | Proliferation (luminescent ATP assay), Mean ([1]; T-cell line 165-E9G, 1.25 μg/mL antigen, autologous B-LCL): 132 RLU | Proliferation (luminescent ATP assay), Mean ([1]; T-cell line 165-E9G, 2.5 μg/mL antigen, autologous B-LCL): 129 RLU | Proliferation (luminescent ATP assay), Mean ([1]; T-cell line 165-E9G, 5 μg/mL antigen, autologous B-LCL): 89 RLU | Proliferation (luminescent ATP assay), Mean ([1]; T-cell line 165-E9G, 10 μg/mL antigen, autologous B-LCL): 91 RLU | Proliferation (luminescent ATP assay), Mean ([1]; T-cell line 165-F5G, 1.25 μg/mL antigen, autologous B-LCL): 126 RLU | Proliferation (luminescent ATP assay), Mean ([1]; T-cell line 165-F5G, 2.5 μg/mL antigen, autologous B-LCL): 113 RLU | Proliferation (luminescent ATP assay), Mean ([1]; T-cell line 165-F5G, 5 μg/mL antigen, autologous B-LCL): 136 RLU | Proliferation (luminescent ATP assay), Mean ([1]; T-cell line 165-F5G, 10 μg/mL antigen, autologous B-LCL): 129 RLU | Proliferation (luminescent ATP assay), Mean ([1]; T-cell line 165-F10G, 1.25 μg/mL antigen, autologous B-LCL): 1145 RLU | Proliferation (luminescent ATP assay), Mean ([1]; T-cell line 165-F10G, 2.5 μg/mL antigen, autologous B-LCL): 1270 RLU | Proliferation (luminescent ATP assay), Mean ([1]; T-cell line 165-F10G, 5 μg/mL antigen, autologous B-LCL): 1552 RLU | Proliferation (luminescent ATP assay), Mean ([1]; T-cell line 165-F10G, 10 μg/mL antigen, autologous B-LCL): 8012 RLU | Proliferation (luminescent ATP assay), Mean ([1]; T-cell line 165-H11G, 1.25 μg/mL antigen, autologous B-LCL): 15 RLU | Proliferation (luminescent ATP assay), Mean ([1]; T-cell line 165-H11G, 2.5 μg/mL antigen, autologous B-LCL): 326 RLU | Proliferation (luminescent ATP assay), Mean ([1]; T-cell line 165-H11G, 5 μg/mL antigen, autologous B-LCL): 357 RLU | Proliferation (luminescent ATP assay), Mean ([1]; T-cell line 165-H11G, 10 μg/mL antigen, autologous B-LCL): 178 RLU | reactivity to non-canonical GA peptides ([2]; 205-1F4 (sentence prints 165-1F4), Day 71, 0, 1, 3, 10 μg/mL): showed reactivity | reactivity to non-canonical GA peptide ([2]; 205-1F4 (sentence prints 165-1F4), Day 80, 1, 2, 5, 10 μg/mL): showed reactivity | response relative to the no antigen control ([2]; 205-1F4, Day 71, dose of 10 μg/mL antigen (text: Table 60)): 76.5 fold | response relative to the no antigen control ([2]; 205-1F4, Day 80, dose of 10 μg/mL antigen (Table 58)): 17.3 fold | Non-Canonical Peptide Reactivity ([2]; 205-1F4, at least one proliferation value >=2 times no antigen control): LT 11 | response relative to the no antigen control ([2]; 205-1F4, text Day 80, dose of 10 μg/mL antigen (text: Table 59)): 10.4 fold | Non-Canonical Peptide Non-Reactivity ([2]; 205-1H3): LT 11 | Non-Canonical Peptide Non-Reactivity ([2]; 205-1H11): LT 11 | Reactive T-Cell Line ([2]; Donor 4 COP lines, at least a 50% increase in proliferation relative to a control after stimulation with the non-canonical GA peptide): 205-1F4 (Donor 4) | Nonreactive T-Cell Line ([2]; Donor 4 COP lines, stimulation with the non-canonical GA peptide): 205-1H3 (Donor 4) | Proliferation (luminescent ATP assay), Mean ([2]; Day 71, 1 μg/mL antigen): 73850 | Proliferation (luminescent ATP assay), Mean ([2]; Day 71, 3 μg/mL antigen): 154321 | Proliferation (luminescent ATP assay), Mean ([2]; Day 71, 10 μg/mL antigen): 158776 | Proliferation (luminescent ATP assay), Mean ([2]; Day 80, 1 μg/mL antigen): 3,675 | Proliferation (luminescent ATP assay), Mean ([2]; Day 80, 2 μg/mL antigen): 4,589 | Proliferation (luminescent ATP assay), Mean ([2]; Day 80, 5 μg/mL antigen): 7,626 | Proliferation (luminescent ATP assay), Mean ([2]; Day 80, 10 μg/mL antigen): 8,853 | Reactivity (proliferation), Mean ([2]; T-cell line 205-1H3, 1 μg/mL antigen, 0 μg/mL 4121.0): 4780.3 | Reactivity (proliferation), Mean ([2]; T-cell line 205-1H3, 3 μg/mL antigen, 0 μg/mL 4121.0): 3083.3 | Reactivity (proliferation), Mean ([2]; T-cell line 205-1H3, 10 μg/mL antigen, 0 μg/mL 4121.0): 3381.0 | Reactivity (proliferation), Mean ([2]; T-cell line 205-1H11, 1 μg/mL antigen, 0 μg/mL 6941): 5961 RLU | Reactivity (proliferation), Mean ([2]; T-cell line 205-1H11, 10 μg/mL antigen, 0 μg/mL 6941): 6698 RLU | Reactivity (proliferation), Mean ([2]; T-cell line 205-1H11, 30 μg/mL antigen, 0 μg/mL 6941): 4303 RLU | Non-Canonical Peptide Reactivity ([3]; 165-C4C): LT 11 | Non-Canonical Peptide Reactivity ([3]; 165-C7C): LT 11 | proliferation response to non-canonical GA peptides ([3]; 165-F3C (Day 77) and 165-C4C (Day 66), 0, 1, 3, 10 μg/mL): responded well | Non-Canonical Peptide Reactivity ([3]; 165-F3C): LT 11 | Non-Canonical Peptide Non-Reactivity ([3]; 165-F6C, proliferation <2 times no antigen control): LT 11 | Reactive T-Cell Line ([3]; Donor 3 COP lines, at least a 50% increase in proliferation relative to a control after stimulation with the non-canonical GA peptide): 165-C4C (Donor 3) and 165-C7C (Donor 3) and 165-F3C (Donor 3) | Nonreactive T-Cell Line ([3]; Donor 3 COP lines, stimulation with the non-canonical GA peptide): 165-F6C (Donor 3) | Proliferation (luminescent ATP assay), Mean ([3]; T-cell line 165-C4C, 1 μg/mL antigen, Day 66 of culture, 0 μg/mL 1881): 2430 | Proliferation (luminescent ATP assay), Mean ([3]; T-cell line 165-C4C, 3 μg/mL antigen, Day 66 of culture, 0 μg/mL 1881): 2701 | Proliferation (luminescent ATP assay), Mean ([3]; T-cell line 165-C4C, 10 μg/mL antigen, Day 66 of culture, 0 μg/mL 1881): 4129 | Proliferation (luminescent ATP assay), Mean ([3]; T-cell line 165-C7C, 1.25 μg/mL antigen, autologous B-LCL): 418 RLU | Proliferation (luminescent ATP assay), Mean ([3]; T-cell line 165-C7C, 2.5 μg/mL antigen, autologous B-LCL): 305 RLU | Proliferation (luminescent ATP assay), Mean ([3]; T-cell line 165-C7C, 5 μg/mL antigen, autologous B-LCL): 244 RLU | Proliferation (luminescent ATP assay), Mean ([3]; T-cell line 165-C7C, 10 μg/mL antigen, autologous B-LCL): 119 RLU | Proliferation (luminescent ATP assay), Mean ([3]; T-cell line 165-F3C, 1 μg/mL antigen, Day 77 of culture, 0 μg/mL 1563): 2144 | Proliferation (luminescent ATP assay), Mean ([3]; T-cell line 165-F3C, 3 μg/mL antigen, Day 77 of culture, 0 μg/mL 1563): 2605 | Proliferation (luminescent ATP assay), Mean ([3]; T-cell line 165-F3C, 10 μg/mL antigen, Day 77 of culture, 0 μg/mL 1563): 3608 | Proliferation (luminescent ATP assay), Mean ([3]; T-cell line 165-F6C, 1.25 μg/mL antigen, Day 76 of culture, No Antigen value 517): 431 | Proliferation (luminescent ATP assay), Mean ([3]; T-cell line 165-F6C, 2.5 μg/mL antigen, Day 76 of culture, No Antigen value 517): 518 | Proliferation (luminescent ATP assay), Mean ([3]; T-cell line 165-F6C, 5 μg/mL antigen, Day 76 of culture, No Antigen value 517): 490 | Proliferation (luminescent ATP assay), Mean ([3]; T-cell line 165-F6C, 10 μg/mL antigen, Day 76 of culture, No Antigen value 517): 736
